Where a name gives a salt, the structure may show the parent alone.
Key:
[1] = system: Skin allograft rejection (SHR to Fischer rats); assay: Inhibition of rejection of skin allograft; format: in vivo; conditions: ± S.D.
From the text: In the next place, the present inventors conducted a skin graft test with rats. In accordance with the method of Denham et al. (Denham et al., International Archives of Allergy and Applied Immunology, vol. 62, pp. 443-458, 1980), the skin of the tail of SHR rats was peeled and allografted onto Fischer rats. […] The inhibitory action of spergualin on tissue rejections is expected to manifest itself not only in skin transplantation but also in the transplantation of such organs as the kidney, heart, spleen, lung, liver, bone marrow and endocrine organs.
Skin sections (5×10 mm) were peeled from the tails of SHR rats (female, 10 wk old) and transplanted to Fischer rats (female, 10 wk old) on the back. Varying doses of spergualin were administered intraperitoneally for a consecutive period of 10 or 20 days starting on the day following the transplantation. Complete necrosis of the graft was used as a measure of rejection and the inhibitory action of the compound was evaluated in terms of how long the rejection was postponed. […] The longer the period of administration, the greater the inhibitory action.

B-lymphocyte = assay: Inhibition of LPS-induced reaction of B-lymphocyte blastogenesis (3H-thymidine uptake); format: cell-based, BALB/c mice; conditions: LPS 100 μg/ml; for ^3 H--thymidine uptake: ± S.D.
Procedure: (§1) The present inventors conducted tests to evaluate the actions of spergualin against the reaction of lymphocyte blastogenesis in accordance with the method of Waithe et al. (Waithe et al., Handbook of Experimental Immunology, page 26.1, 1978).
(§2) Spleen cells from BALB/c mice were distritubed among wells in a microplate so that each well contained 2×10^5 cells/0.2 ml. The compound was added to all wells but one, the latter being used as a control. Con A (5 μg/ml) was added to all the wells and the so prepared cell suspensions were cultivated in a 5% CO2 incubator for 72 hours at 37° C. Eight hours before the completion of the incubation, 1 μCi of ^3 H-thymidine was added to each well and the uptake of the thymidine by the cultured cells was measured with a liquid scintillation counter to estimate the progress of the reaction of T-lymphocyte blastogenesis. The percentage inhibition of the blastogenesis by the test compound was calculated by: […] wherein Adpm indicates the uptake count for the addition of only Con A and Bdpm, the count for the addition of both Con A and the test compound.
The uptake of ^3 H-thymidine by B-cell was measured in accordance with the method used in Experiment 1, except that the inducer Con A was replaced by 100 μg/ml of LPS from E. coli. The percentage inhibition of blastogenesis by the test compound was also determined by the same method as used in Experiment 1.

[2] = system: experimental aplastic anemia; assay: Effect on experimental aplastic anemia in mice; format: in vivo, C3H/HeN mice; conditions: 10 days; for MST (mean survival time): ± S.D.
From the text: Female C3H/HeN mice (Mls^c) of 10 week-old and female CBA mice (Mls^d) of 10 week-old were used. A group consisted of 10 mice. CBA lymph node cells (10^7) were i.v. into C3H/HeN mice after being subjected to 600 rads of whole-body X-irradiation, spergualin was given i.p. once a day for 10 days. The data is indicated as the mean survival time ±S.D.

[3] = system: acute experimental allergic encephalomyelitis; assay: Effect on acute experimental allergic encephalomyelitis; format: in vivo, strain 13 guinea pigs; conditions: 2 weeks, with S.D.
Procedure: Male strain 13 guinea pigs were used. A group consisted of 5 guinea pigs. An aqueous suspension of 50% syngeneic spinal cord homogenate was emulsified in an equal volume of complete Freund's adjuvant containing M. tuberculosis at 20 mg/ml. The antigen emulsion (0.1 ml) was injected both hindfootpads of a guinea pig. Spergualin was administered i.p. for 2 weeks at 0.78 and 1.56 mg/kg.

T-lymphocyte = assay: Inhibition of Con A-induced reaction of T-lymphocyte blastogenesis (3H-thymidine uptake, BALB/c spleen cells); format: cell-based, BALB/c mice; conditions: Con A 5 μg/ml, 72 h; for ^3 H--thymidine uptake: ± S.D.
Procedure: as §1, §2

IgE antibody production = assay: Inhibition of IgE antibody production against egg albumin (passive cutaneous anaphylaxis titer); format: in vivo, BALB/c mice; conditions: 50 mg/kg/day i.p., ± S.D.
Procedure: BALB/c mice (7 wk old, female) were challenged by intraperitoneal administration of 10 μg of egg albumin together with 4 mg of aluminum hydroxide gel. Thereafter, the mice were intraperitoneally administered 50 mg/kg/day of the test compound in accordance with the schedules shown in Table 5. After the challenge, blood was drawn from the fundus of each mouse at 10-day intervals for serum collection. The antibody titer of IgE in the serum was determined by passive cutaneous anaphylaxis as follows. Fischer 344 rats (female, 10 wk old) were injected with 0.05 ml of a diluted serum into the dorsal skin. Four hours later, 1 mg of egg albumin and 0.5 ml of 1% Evans blue were injected into the tail vein, and the final serum dilution that produced a blue spot of a diameter of at least 5 mm 30 minutes after the intravenous injection was used as a measure of the antibody titer.

[4] = Exp. 1, 3.13 mg/kg i.p. once a day
[5] = Exp. 2, 6.25 mg/kg i.p. once a day
[6] = Exp. 2, 25.0 mg/kg i.p. once a day
[7] = Exp. 2, 50.0 mg/kg i.p. once a day

N=C(N)NCCCCC(O)CC(=O)NC(O)C(=O)NCCCCNCCCN (centres unmarked) [spergualin (trihydrochloride)]
Average No. of days before rejection ([1]; Run 1, 6.25 mg/kg/day i.p., days 1-10): 10.2 ± 2.6 days | Average No. of days before rejection ([1]; Run 1, 12.5 mg/kg/day i.p., days 1-10): 13.0 ± 4.2 days | Average No. of days before rejection ([1]; Run 1, 25.0 mg/kg/day i.p., days 1-10): 14.9 ± 6.9 days | Average No. of days before rejection ([1]; Run 1, 50.0 mg/kg/day i.p., days 1-10): 17.0 ± 3.2 days | Average No. of days before rejection ([1]; Run 2, 25.0 mg/kg/day i.p., days 1-10): 15.0 ± 5.2 days | Average No. of days before rejection ([1]; Run 2, 25.0 mg/kg/day i.p., days 1-20): 31.0 ± 1.9 days | ^3 H--thymidine uptake (B-lymphocyte; 10 μg/ml): 38,842 ± 21,573 dpm | ^3 H--thymidine uptake (B-lymphocyte; 100 μg/ml): 396 ± 216 dpm | inhibition at 10 µg/mL (B-lymphocyte; Mus musculus, 10 μg/ml): 83.4% | inhibition at 100 µg/mL (B-lymphocyte; Mus musculus, 100 μg/ml): 99.8% | 30-day survivors, Survivors/Total [2, 4]: 2/10 | MST (mean survival time) [2, 4]: 16.3 ± 8.1 days | 30-day survivors, Survivors/Total ([2]; Exp. 1, 6.25 mg/kg i.p. once a day): 6/10 | MST (mean survival time) ([2]; Exp. 1, 6.25 mg/kg i.p. once a day, P < 0.05): 22.6 ± 9.7 days | 30-day survivors, Survivors/Total ([2]; Exp. 1, 12.5 mg/kg i.p. once a day): 10/10 | MST (mean survival time) ([2]; Exp. 1, 12.5 mg/kg i.p. once a day, P < 0.01): 30.0 ± 0.0 days | 30-day survivors, Survivors/Total ([2]; Exp. 1, 25.0 mg/kg i.p. once a day): 6/10 | MST (mean survival time) ([2]; Exp. 1, 25.0 mg/kg i.p. once a day, P < 0.05): 23.6 ± 8.6 days | 30-day survivors, Survivors/Total [2, 5]: 3/10 | MST (mean survival time) [2, 5]: 20.2 ± 8.4 days | 30-day survivors, Survivors/Total ([2]; Exp. 2, 12.5 mg/kg i.p. once a day): 6/10 | MST (mean survival time) ([2]; Exp. 2, 12.5 mg/kg i.p. once a day, P < 0.05): 23.0 ± 9.4 days | 30-day survivors, Survivors/Total [2, 6]: 4/10 | MST (mean survival time) [2, 6]: 20.7 ± 8.5 days | 30-day survivors, Survivors/Total [2, 7]: 0/10 | MST (mean survival time) [2, 7]: 12.6 ± 3.9 days | Mean survival time ([3]; 0.78 mg/kg i.p.): 15.2 ± 1.8 days | Mean survival time ([3]; 1.56 mg/kg i.p., P < 0.01): 23.6 ± 9.2 days | ^3 H--thymidine uptake (T-lymphocyte; 10 μg/ml): 30,214 ± 25,033 dpm | ^3 H--thymidine uptake (T-lymphocyte; 100 μg/ml): 788 ± 182 dpm | inhibition at 10 µg/mL (T-lymphocyte; Mus musculus, T-lymphocyte, 10 μg/ml): 76.7% | inhibition at 100 µg/mL (T-lymphocyte; Mus musculus, T-lymphocyte, 100 μg/ml): 99.4% | IgE antibody titer, 10 days (IgE antibody production; days 1-8 after challenge): 13±33 dilutions | IgE antibody titer, 20 days (IgE antibody production; days 1-8 after challenge): 60±31 dilutions | IgE antibody titer, 30 days (IgE antibody production; days 1-8 after challenge): 320±0 dilutions | IgE antibody titer, 40 days (IgE antibody production; days 1-8 after challenge): 320±0 dilutions | IgE antibody titer, 10 days (IgE antibody production; days 1-16 after challenge): 0±0 dilutions | IgE antibody titer, 20 days (IgE antibody production; days 1-16 after challenge): 8±9 dilutions | IgE antibody titer, 30 days (IgE antibody production; days 1-16 after challenge): 80±120 dilutions | IgE antibody titer, 40 days (IgE antibody production; days 1-16 after challenge): 200±131 dilutions | IgE antibody titer, 10 days (IgE antibody production; days 9-16 after challenge): 120±98 dilutions | IgE antibody titer, 20 days (IgE antibody production; days 9-16 after challenge): 110±106 dilutions | IgE antibody titer, 30 days (IgE antibody production; days 9-16 after challenge): 320±0 dilutions | IgE antibody titer, 40 days (IgE antibody production; days 9-16 after challenge): 480±392 dilutions

Source: patent US4778824A, “Method for suppressing a transplantation immunity and treating an allergic disease and an autoimmune disease” (Zaidan Hojin Biseibutsu Kagaku Kenkyu Kai, priority 1984, dated 1988)
